# The supplement of paper PMC10627819
# Assays:
# S. aureus Newman [1] = assay: fitness (endpoint OD595 vs no drug) (fraction); higher = more growth
# How it was run: (§1)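 Bacterial fitness was scored as optical density at the stationary-phase transition relative to the robust mean of no-drug control wells. Scores are capped at 1. The growth data were OD595 readings every 30 min for 14 h at 37 °C, background-subtracted against the first reading, from 384-well plates inoculated at OD595 0.01 in TSB, LB Lennox or CY.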
# S. pneumoniae D39V [2] = assay: as above
# How it was run: as §1
# S. aureus DSM 20231 [3] = assay: as above
# How it was run: as §1
# S. aureus Newman [4] = assay: Bliss interaction score (quartile over a dose matrix) (fitness difference); higher = more antagonism (negative = synergy)
# How it was run: (§2)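 Combination data were used to infer fitness under each single drug. Fitness is the OD595 at entry into stationary phase divided by the robust mean of the plate's no-drug wells, with a cap of 1. The Bliss score is the observed minus the expected product fitness, summarised by quartiles over technical, biological and donor/recipient replicates.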
# B. subtilis 168 = assay: as above
# How it was run: as §2
# S. pneumoniae D39V [5] = assay: as above
# How it was run: as §2
# S. aureus DSM 20231 [6] = assay: as above
# How it was run: as §2
# [7] = first compound 0.625 µg/mL, partner 0.0625 µg/mL
# [8] = first compound 0.625 µg/mL, partner 0.125 µg/mL
# [9] = first compound 1.25 µg/mL, partner 0.0625 µg/mL
# [10] = first compound 1.25 µg/mL, partner 0.125 µg/mL
# [11] = first compound 2.5 µg/mL, partner 0.0625 µg/mL
# [12] = first compound 2.5 µg/mL, partner 0.125 µg/mL
# [13] = first compound 1.25 µg/mL, partner 0.25 µg/mL
# [14] = first compound 0.781 µg/mL, partner 0.1875 µg/mL
# [15] = first compound 0.781 µg/mL, partner 0.375 µg/mL
# [16] = first compound 0.781 µg/mL, partner 0.75 µg/mL
# [17] = first compound 1.562 µg/mL, partner 0.1875 µg/mL
# [18] = first compound 1.562 µg/mL, partner 0.375 µg/mL
# [19] = first compound 1.562 µg/mL, partner 0.75 µg/mL
# [20] = first compound 3.124 µg/mL, partner 0.1875 µg/mL
# [21] = first compound 3.124 µg/mL, partner 0.375 µg/mL
# [22] = first compound 3.124 µg/mL, partner 0.75 µg/mL
# [23] = first compound 1.25 µg/mL, partner 0.03125 µg/mL
# [24] = first compound 1.25 µg/mL, partner 0.5 µg/mL
# [25] = first compound 2.5 µg/mL, partner 0.03125 µg/mL
# [26] = first compound 2.5 µg/mL, partner 0.5 µg/mL
# [27] = first compound 5 µg/mL, partner 0.03125 µg/mL
# [28] = first compound 5 µg/mL, partner 0.0625 µg/mL
# [29] = first compound 5 µg/mL, partner 0.25 µg/mL
# [30] = first compound 5 µg/mL, partner 0.5 µg/mL
# [31] = first compound 0.781 µg/mL, partner 0.0625 µg/mL
# [32] = first compound 1.562 µg/mL, partner 0.25 µg/mL
# [33] = first compound 3.124 µg/mL, partner 0.0625 µg/mL
# [34] = first compound 3.124 µg/mL, partner 0.125 µg/mL
# [35] = first compound 3.124 µg/mL, partner 0.25 µg/mL
# 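For Bliss interaction score (quartile over a dose matrix) in this document: first quartile when negative (synergy) and third quartile when positive (antagonism).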
smiles,measurement,setting,value
COc1cccc2c1C(=O)c1c(O)c3c(c(O)c1C2=O)C[C@@](O)(C(=O)CO)C[C@@H]3O[C@H]1C[C@H](N)[C@H](O)[C@H](C)O1 [Doxorubicin] + Cn1nnc(-c2ccc(-c3ccc(N4C[C@H](CO)OC4=O)cc3F)cn2)n1 [Tedizolid],fitness,S. aureus Newman [1]; [7],0.786
same,fitness,S. aureus Newman [1]; [8],0.758
same,fitness,S. aureus Newman [1]; [9],0.751
same,fitness,S. aureus Newman [1]; [10],0.731
same,fitness,S. aureus Newman [1]; [11],0.693
same,fitness,S. aureus Newman [1]; [12],0.655
same,fitness,"S. pneumoniae D39V [2]; first compound 0.25 µg/mL, partner 0.03125 µg/mL",0.897
same,fitness,"S. pneumoniae D39V [2]; first compound 0.25 µg/mL, partner 0.0625 µg/mL",0.909
same,fitness,"S. pneumoniae D39V [2]; first compound 0.25 µg/mL, partner 0.125 µg/mL",0.747
same,fitness,"S. pneumoniae D39V [2]; first compound 0.25 µg/mL, partner 0.25 µg/mL",0.288
same,fitness,"S. pneumoniae D39V [2]; first compound 0.25 µg/mL, partner 0.5 µg/mL",0.131
same,fitness,"S. pneumoniae D39V [2]; first compound 0.5 µg/mL, partner 0.03125 µg/mL",0.903
same,fitness,"S. pneumoniae D39V [2]; first compound 0.5 µg/mL, partner 0.0625 µg/mL",0.938
same,fitness,"S. pneumoniae D39V [2]; first compound 0.5 µg/mL, partner 0.125 µg/mL",0.748
same,fitness,"S. pneumoniae D39V [2]; first compound 0.5 µg/mL, partner 0.25 µg/mL",0.288
same,fitness,"S. pneumoniae D39V [2]; first compound 0.5 µg/mL, partner 0.5 µg/mL",0.114
same,fitness,"S. pneumoniae D39V [2]; first compound 1 µg/mL, partner 0.03125 µg/mL",0.917
same,fitness,"S. pneumoniae D39V [2]; first compound 1 µg/mL, partner 0.0625 µg/mL",0.953
same,fitness,"S. pneumoniae D39V [2]; first compound 1 µg/mL, partner 0.125 µg/mL",0.774
same,fitness,"S. pneumoniae D39V [2]; first compound 1 µg/mL, partner 0.25 µg/mL",0.282
same,fitness,"S. pneumoniae D39V [2]; first compound 1 µg/mL, partner 0.5 µg/mL",0.11
same,fitness,S. aureus DSM 20231 [3]; [7],0.813
same,fitness,S. aureus DSM 20231 [3]; [8],0.728
same,fitness,"S. aureus DSM 20231 [3]; first compound 0.625 µg/mL, partner 0.25 µg/mL",0.339
same,fitness,S. aureus DSM 20231 [3]; [9],0.783
same,fitness,S. aureus DSM 20231 [3]; [10],0.7
same,fitness,S. aureus DSM 20231 [3]; [13],0.374
same,fitness,S. aureus DSM 20231 [3]; [11],0.738
same,fitness,S. aureus DSM 20231 [3]; [12],0.673
same,Bliss interaction score,S. aureus Newman [4],-0.0534
same,Bliss interaction score,B. subtilis 168,0.0912
same,Bliss interaction score,S. pneumoniae D39V [5],-0.0807
same,Bliss interaction score,S. aureus DSM 20231 [6],-0.0759
C[C@@H]1O[C@@H]1P(=O)(O)O [Fosfomycin] + CN[C@H](CC(C)C)C(=O)N[C@H]1C(=O)N[C@@H](CC(N)=O)C(=O)N[C@H]2C(=O)N[C@H]3C(=O)N[C@H](C(=O)N[C@H](C(=O)O)c4cc(O)cc(O)c4-c4cc3ccc4O)[C@H](O)c3ccc(c(Cl)c3)Oc3cc2cc(c3O[C@@H]2O[C@H](CO)[C@@H](O)[C@H](O)[C@H]2O[C@H]2C[C@](C)(N)[C@H](O)[C@H](C)O2)Oc2ccc(cc2Cl)[C@H]1O [Vancomycin],fitness,S. aureus Newman [1]; [14],0.649
same,fitness,S. aureus Newman [1]; [15],0.628
same,fitness,S. aureus Newman [1]; [16],0.655
same,fitness,S. aureus Newman [1]; [17],0.555
same,fitness,S. aureus Newman [1]; [18],0.563
same,fitness,S. aureus Newman [1]; [19],0.548
same,fitness,S. aureus Newman [1]; [20],0.279
same,fitness,S. aureus Newman [1]; [21],0.255
same,fitness,S. aureus Newman [1]; [22],0.245
same,fitness,S. pneumoniae D39V [2]; [23],0.97
same,fitness,S. pneumoniae D39V [2]; [9],0.916
same,fitness,S. pneumoniae D39V [2]; [10],0.905
same,fitness,S. pneumoniae D39V [2]; [24],0.0887
same,fitness,S. pneumoniae D39V [2]; [25],0.87
same,fitness,S. pneumoniae D39V [2]; [11],0.869
same,fitness,S. pneumoniae D39V [2]; [12],0.888
same,fitness,S. pneumoniae D39V [2]; [26],0.0855
same,fitness,S. pneumoniae D39V [2]; [27],0.719
same,fitness,S. pneumoniae D39V [2]; [28],0.726
same,fitness,S. pneumoniae D39V [2]; [29],0.255
same,fitness,S. pneumoniae D39V [2]; [30],0.0851
same,fitness,S. aureus DSM 20231 [3]; [14],0.757
same,fitness,S. aureus DSM 20231 [3]; [15],0.751
same,fitness,S. aureus DSM 20231 [3]; [16],0.757
same,fitness,S. aureus DSM 20231 [3]; [17],0.596
same,fitness,S. aureus DSM 20231 [3]; [18],0.638
same,fitness,S. aureus DSM 20231 [3]; [19],0.624
same,fitness,S. aureus DSM 20231 [3]; [20],0.525
same,fitness,S. aureus DSM 20231 [3]; [21],0.546
same,fitness,S. aureus DSM 20231 [3]; [22],0.542
same,Bliss interaction score,S. aureus Newman [4],0.103
same,Bliss interaction score,B. subtilis 168,0.029
same,Bliss interaction score,S. pneumoniae D39V [5],-0.0646
same,Bliss interaction score,S. aureus DSM 20231 [6],0.0454
C[C@@H]1O[C@@H]1P(=O)(O)O [Fosfomycin] + Cn1nnc(-c2ccc(-c3ccc(N4C[C@H](CO)OC4=O)cc3F)cn2)n1 [Tedizolid],fitness,S. aureus Newman [1]; [31],0.52
same,fitness,S. aureus Newman [1]; [32],0.101
same,fitness,S. aureus Newman [1]; [33],0.106
same,fitness,S. aureus Newman [1]; [34],0.0423
same,fitness,S. aureus Newman [1]; [35],0.0102
same,fitness,S. pneumoniae D39V [2]; [23],0.951
same,fitness,S. pneumoniae D39V [2]; [9],0.95
same,fitness,S. pneumoniae D39V [2]; [10],0.813
same,fitness,S. pneumoniae D39V [2]; [13],0.43
same,fitness,S. pneumoniae D39V [2]; [24],0.138
same,fitness,S. pneumoniae D39V [2]; [25],0.936
same,fitness,S. pneumoniae D39V [2]; [11],0.906
same,fitness,S. pneumoniae D39V [2]; [12],0.792
same,fitness,"S. pneumoniae D39V [2]; first compound 2.5 µg/mL, partner 0.25 µg/mL",0.455
same,fitness,S. pneumoniae D39V [2]; [26],0.132
same,fitness,S. pneumoniae D39V [2]; [27],0.89
same,fitness,S. pneumoniae D39V [2]; [28],0.911
same,fitness,"S. pneumoniae D39V [2]; first compound 5 µg/mL, partner 0.125 µg/mL",0.783
same,fitness,S. pneumoniae D39V [2]; [29],0.437
same,fitness,S. pneumoniae D39V [2]; [30],0.151
same,fitness,S. aureus DSM 20231 [3]; [31],0.693
same,fitness,"S. aureus DSM 20231 [3]; first compound 0.781 µg/mL, partner 0.125 µg/mL",0.497
same,fitness,"S. aureus DSM 20231 [3]; first compound 0.781 µg/mL, partner 0.25 µg/mL",0.091
same,fitness,"S. aureus DSM 20231 [3]; first compound 1.562 µg/mL, partner 0.0625 µg/mL",0.66
same,fitness,"S. aureus DSM 20231 [3]; first compound 1.562 µg/mL, partner 0.125 µg/mL",0.372
same,fitness,S. aureus DSM 20231 [3]; [32],0.0334
same,fitness,S. aureus DSM 20231 [3]; [33],0.493
same,fitness,S. aureus DSM 20231 [3]; [34],0.202
same,fitness,S. aureus DSM 20231 [3]; [35],0.0354
same,Bliss interaction score,S. aureus Newman [4],-0.128
same,Bliss interaction score,B. subtilis 168,0.0967
same,Bliss interaction score,S. pneumoniae D39V [5],0.0919
same,Bliss interaction score,S. aureus DSM 20231 [6],0.069
